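Dose response: 5 concentrations. Exposure: 48 h. Format: 96-well plates. Endpoint: linear interpolation; highest concentration if not reached. GI50 = concentration required for 50% inhibition of growth. TGI: total growth inhibition.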 Some results are limits rather than exact numbers.

Some test systems named below: 786-0 renal; CAKI-1 renal; HCT-116 colon; HOP-62 NSCLC; KM12 colon; MCF7 breast; MDA-MB-435; SF-268 CNS; SR leukemia; UACC-257 melanoma.
Assay in all cases: growth of human tumour cells (NCI), 48 h

On to `COc1ccc(-c2cc(-c3ccc(Cl)cc3)nc(SCCCC(=O)NO)n2)cc1OC`, for which the GI50 was 0.591 µM in the test on 786-0 renal; 0.308 µM in the test with CAKI-1 renal; 0.433 µM with HCT-116 colon; 1.01 µM in the test with HOP-62 NSCLC; 1.34 µM in the test on KM12 colon; 1.63 µM with MCF7 breast. Besides, the GI50 in the test with MDA-MB-435 is 1.42 µM; with SF-268 CNS it was 1.28 µM; in the test on SR leukemia it was 0.354 µM; with UACC-257 melanoma it was 1.81 µM. The TGI is 2.68 µM in the test with 786-0 renal; 1.54 µM in the test with CAKI-1 renal; above 100 µM in the test with HCT-116 colon; 6.87 µM in the test with HOP-62 NSCLC; 3.22 µM in the test with KM12 colon; 5.39 µM with MCF7 breast. In addition, the TGI was 3.12 µM in the test on MDA-MB-435, 3.81 µM with SF-268 CNS, above 100 µM with SR leukemia and 4.89 µM in the test with UACC-257 melanoma.
For the molecule `Cc1ncnc2c1ccn2[C@@H]1C[C@H](Oc2cc(C(F)F)c(F)c3c2CNCC3)[C@@H](O)[C@H]1O`, the GI50 in the test on 786-0 renal, in the test on CAKI-1 renal, with HCT-116 colon, with HOP-62 NSCLC, with KM12 colon and with MCF7 breast was above 100 µM in each case. The GI50 in the test with MDA-MB-435, in the test with SF-268 CNS, in the test on SR leukemia and with UACC-257 melanoma was above 100 µM in each case. Besides, the TGI in the test on 786-0 renal, in the test with CAKI-1 renal, in the test on HCT-116 colon, in the test with HOP-62 NSCLC, in the test on KM12 colon and with MCF7 breast was above 100 µM in each case. Further, the TGI in the test with MDA-MB-435, in the test on SF-268 CNS, in the test on SR leukemia and in the test on UACC-257 melanoma was above 100 µM in each case.
As to `CC[C@]1(O)CC2CN(CCc3c([nH]c4ccccc34)C(C(=O)OC)(c3cc4c(cc3OC)N(C=O)[C@H]3[C@@](O)(C(=O)OC)[C@H](OC(C)=O)[C@]5(CC)[C@@H]6C[C@@H]6CN6CC[C@]43[C@@H]65)C2)C1` (stereo not given in full), the GI50 in the test with 786-0 renal was below 0.00325 µM; in the test on CAKI-1 renal, 0.0324 µM; in the test with HCT-116 colon, below 0.00325 µM; in the test with HOP-62 NSCLC, below 0.00325 µM; with KM12 colon it was below 0.00325 µM; in the test with MCF7 breast, below 0.00325 µM. The GI50 with MDA-MB-435, in the test with SF-268 CNS, in the test with SR leukemia and with UACC-257 melanoma was below 0.00325 µM each time. In addition, the TGI is 6.65 µM with 786-0 renal; 12.2 µM with CAKI-1 renal; 0.00352 µM with HCT-116 colon; above 13.7 µM in the test on HOP-62 NSCLC; 0.00386 µM with KM12 colon; above 11.7 µM with MCF7 breast. For the same molecule, the TGI in the test with MDA-MB-435 is below 0.00325 µM; with SF-268 CNS it was 7.39 µM; with SR leukemia it was 0.247 µM; in the test with UACC-257 melanoma, 4.37 µM.
As for `CCN1C[C@@H](C)n2c(c(O)c3c(=O)n(Cc4ccc(F)c(Cl)c4)nc(C(=O)NC)c32)C1=O`, the GI50 is 2.91 µM with 786-0 renal; 3.03 µM in the test on CAKI-1 renal; 3.21 µM with HCT-116 colon; 3.16 µM in the test with HOP-62 NSCLC; 2.73 µM in the test on KM12 colon; 3.26 µM with MCF7 breast. The GI50 in the test on MDA-MB-435 is 3.21 µM; in the test with SF-268 CNS, 3.4 µM; in the test with SR leukemia it was 3.22 µM; in the test with UACC-257 melanoma, 2.32 µM. Further, the TGI was 8.4 µM in the test with 786-0 renal; 16.6 µM in the test with CAKI-1 renal; above 100 µM with HCT-116 colon; 24.7 µM in the test with HOP-62 NSCLC; 7.71 µM with KM12 colon; 65.7 µM in the test with MCF7 breast. Also, the TGI in the test on MDA-MB-435 was above 100 µM; with SF-268 CNS it was 39.8 µM; with SR leukemia, 14.8 µM; in the test on UACC-257 melanoma it was 6.77 µM.
Turning to `CCc1nc(N)nc(N)c1-c1ccc(N2CCNCC2)c([N+](=O)[O-])c1`, the TGI in the test on 786-0 renal is above 74.3 µM; in the test on CAKI-1 renal, above 100 µM; with HCT-116 colon, above 100 µM; in the test on HOP-62 NSCLC it was above 91.8 µM; with KM12 colon, above 100 µM; in the test on MCF7 breast, above 79.1 µM. Further, the TGI in the test on MDA-MB-435 was above 100 µM; with SF-268 CNS, above 37.5 µM; in the test on SR leukemia it was above 100 µM; with UACC-257 melanoma, 57.7 µM.
Regarding `C=CCc1cc(O)ccc1O`, the GI50 is 22.8 µM in the test on 786-0 renal; 23.9 µM with CAKI-1 renal; 16.8 µM with HCT-116 colon; 29.8 µM in the test with HOP-62 NSCLC; 13.2 µM in the test on KM12 colon; 44.3 µM with MCF7 breast. Further, the GI50 is 19.9 µM in the test on MDA-MB-435, 16.5 µM in the test with SF-268 CNS, 9.14 µM in the test on SR leukemia and above 100 µM in the test with UACC-257 melanoma. Besides, the TGI in the test on 786-0 renal was above 100 µM; with CAKI-1 renal, above 100 µM; in the test with HCT-116 colon it was 31.1 µM; in the test on HOP-62 NSCLC it was above 100 µM; in the test with KM12 colon it was 65.1 µM; with MCF7 breast, above 100 µM. For the same molecule, the TGI is 57.1 µM with MDA-MB-435, above 100 µM with SF-268 CNS, above 100 µM in the test on SR leukemia and above 100 µM in the test on UACC-257 melanoma.
As for `O=C(NNC1=NS(=O)(=O)c2ccccc2N1c1ccccc1)c1cnccn1`, the GI50 in the test with 786-0 renal, in the test on CAKI-1 renal, in the test on HCT-116 colon, with HOP-62 NSCLC, with KM12 colon and in the test on MCF7 breast was above 100 µM each time. For the same molecule, the GI50 in the test on MDA-MB-435, in the test on SF-268 CNS, in the test with SR leukemia and with UACC-257 melanoma was above 100 µM throughout. Moreover, the TGI in the test on 786-0 renal, with CAKI-1 renal, in the test on HCT-116 colon, with HOP-62 NSCLC, in the test with KM12 colon and in the test with MCF7 breast was above 100 µM each time. The TGI in the test on MDA-MB-435, in the test with SF-268 CNS, in the test on SR leukemia and with UACC-257 melanoma was above 100 µM throughout.

Values taken from PubChem BioAssay (NCI).
